The results in this text go back to ChEMBL document CHEMBL1138603, “New Labdane diterpenes as intestinal alpha-glucosidase inhibitor from antihyperglycemic extract of Hedychium spicatum (Ham. Ex Smith) rhizomes” (Bioorg Med Chem Lett, 2009).

Experiment [1] is filed under the species Rattus norvegicus. Put plainly: Inhibition of rat intestinal alpha-glucosidase activity at 100 ugmL.
Experiment [2] is described as follows: Inhibition of rat intestinal alpha-glucosidase activity.

Calls of active or inactive are those of the source. The rule behind the calls is not given here.

In turn, `CC1=C(O)C(=O)[C@H]2C(C)(C)CCC[C@]2(C)[C@H]1/C=C/c1ccoc1` yielded an inhibition in experiment [1] of 13.5%. Regarding `C[C@H]1O[C@H](O[C@H]2[C@H](O)[C@@H](O)[C@@H](O[C@H]3[C@H](O)[C@@H](O)C(O)O[C@@H]3CO)O[C@@H]2CO)[C@H](O)[C@@H](O)[C@@H]1N[C@H]1C=C(CO)[C@@H](O)[C@H](O)[C@H]1O` (stereo partly specified) [ACARBOSE], the midpoint of inhibition in experiment [2], the IC50, lay at 23.8 µM.

Consider `CC1(C)CCC[C@]2(C)[C@@H](/C=C/c3ccoc3)C(CO)=CC(=O)[C@@H]12`, for which, in experiment [1], the inhibition came out at 15.1%.

In turn, `CO[C@@H]1OC(=O)C=C1/C=C/[C@H]1C(C)=CC(=O)[C@H]2C(C)(C)CCC[C@]12C` had an inhibition in experiment [1] of 54.1%.

In the case of `C=C1CC[C@H]2C(C)(C)CCC[C@]2(C)[C@H]1C`, the inhibition result in experiment [1] was “inactive”. In turn, `CC(=O)OC1=C(C)[C@H](/C=C/c2ccoc2)[C@@]2(C)CCCC(C)(C)[C@@H]2C1=O` gave an inhibition in experiment [1] of 25.7%.

In the case of `CC1=CC(=O)[C@H]2C(C)(C)CCC[C@]2(C)[C@H]1/C=C/c1ccoc1`, the inhibition in experiment [1] was found to be 55.6%. `CC1=CC(=O)[C@H]2C(C)(C)CCC[C@]2(C)[C@H]1/C=C/C1=CC(=O)OC1`: the inhibition in experiment [1] is 35.1%. `CC1=CC(=O)[C@H]2C(C)(C)CCC[C@]2(C)[C@H]1/C=C/C1=CC(=O)O[C@H]1O` [SPICATANOL] gave an IC50 in experiment [2] of 34.1 µM. The same compound came in with an inhibition in experiment [1] of 89.5%. In turn, `C=C1[C@@H](O)CC2C(C)(C)CCC[C@]2(C)[C@H]1C/C=C1\CCOC1=O` (stereo partly specified) yielded an inhibition in experiment [1] of 11.3%.

The term inhibition denotes the share of the control response that was lost under treatment. By IC50 is commonly meant the point on the concentration scale where inhibition reaches its midpoint.
